Results as given in patent US20170216340A1, “A Nucleoside Derivative For Use As A Drug, Particularly For The Treatment Of Chronic Lymphocytic Leukemia” (INSTYTUT BIOLOGII MEDYCZNEJ POLSKIEJ AKADEMII NAUK, priority 2014, published 2017).
“Also recorded” adds a separate entry of the source.

What was measured:
[1] = tested on: caspase 3; test: Caspase-3 activation assay (PE Active Caspase-3 Apoptosis Kit, flow cytometry); format: cell-based, human; design: number of caspase-3-positive cells: dose or concentration left out as unconfirmed; details: PLL cells; for number of cells with active form of caspase 3: 48 h drug exposure, 15 μM
Protocol: Caspase 3 is a main effector caspase which is involved in apoptosis process realization (Miura M., Zhu H., Otello R., Hartwieg E.A., Yuan J. 1993. Induction of apoptosis in fibroblasts by IL-1 beta-converting enzyme, a mammalian homolog of the C. elegans cell death gene ced-3, Cell, 75, 653-660). […] Our analysis, conducted after 48 h drug exposure, confirmed that in PLL cells a high antileukemic potential of adenosine modified at C-2 position with boron cluster is related to apoptosis induction. The number of cells with active form of the enzyme raised after the exposure to compound 3 from 9.4% and 10.6% in control and vehicle control (DMSO), respectively, to 28.5%. Similar effect (20,1%) was observed after the incubation of PLL cells with cladribine at concentration of 15 μM which recursively exceeds its level in serum of patients during antileukemic therapy. […] Of note, compound 5 affected PLL cells weaker than compound 3 which was confirmed by caspase 3 activation in 16.1% of leukemic cells.
The percent of leukemic PBMCs with active form of caspase-3 was measured cytometrically by PE Active Caspase-3 Apoptosis Kit, BD Pharmingen according to manufacturer's protocol. The analyses were conducted after 48 h incubation with/without (control) the agents or DMSO (vehicle control). BD LSR II flow cytometer was used and the analyses were performed using FACSDiva Version 6.1.2 software (see results in FIG. 2).

[2] = tested on: PARP-1, Bax, Bcl-2, Mcl-1; test: Western blot analysis of apoptosis-related proteins in CLL and PLL cells; format: cell-based, human; details: 15 μM; for expression level of Bcl-2 in comparison to vehicle control: PBMC samples from Patient 2, 48 h
Protocol: The expression of apoptosis-related proteins was assessed in CLL and PLL cells exposed to the tested agents. All examined adenosine derivatives triggered proteolysis of PARP-1 full length protein (116 kDa) to its cleavage product (89 kDa), which is a known marker of apoptosis. Moreover, altered expression of pro-apoptotic (Bax) and anti-apoptotic proteins (Mcl-1, Bcl-2) from Bcl-2 family was also observed in purine derivative-treated leukemic cells. However, there were some individual differences between basal levels of these apoptotic regulators in model cells, as well as the changes in their cellular levels after the agent exposure were diverse. For instance, there were no significant alterations in Bax/Bcl-2 ratio in cell samples obtained from exemplary patient 1 exposed to the novel nucleosides.
Control PBMCs (without the agents), as well as the cells samples exposed to DMSO (vehicle control) and the tested agents were lysed (4° C., 1 h) in a buffer containing 10 mM Tris-HCl (pH 7.5), 300 mM NaCl, 1% Triton X-100, 2 mM MgCl2, 0.1 M DTT, and protease inhibitors as described previously (A., Kobylinska, J., Bednarek, J. Z., Blonski, M., Hanausek, Z., Walaszek, H., Piekarski, T., Robak, Z. M., Kilianska. 2006. In vitro sensitivity of B-cell chronic lymphocytic leukemia to cladribine and its combinations with mafosfamide and/or mitoxantrone, Oncol. Rep., 16, 1389-1395). Protein content was estimated according to Lowry method (O. H., Lowry, N. J., Rosebrough, A. L., Farr, R. J., Randall. 1951. Protein measurement with the Folin phenol reagent. J. Biol. Chem., 193, 265-275) and the cell lysates were prepared for subsequent Western blotting analysis. Protein samples (60 μg/lane) were separated by SDS polyacrylamide gel electrophoresis (SDS-PAGE) on 8.0 or 12.5% slab gels and electrotransfered onto Immobilon P (H., Towbin, T., Staechlin, J., Gordon, 1979, Electrophoretic transfer of protein from polyacrylamide gels to nitrocellulose sheets: procedure and some applications. Proc. Natl. Acad. Sci. USA, 76, 4350-4354). Membrane staining with 0.5% Ponceau S solution was done to confirm equal protein loading and completeness of the transfer. The membranes were saturated in 5.0% skim milk in TBS (10 mM Tris-HC1, pH 7.5, 150 mM NaC1) for 1 h at ambient temperature, and then incubated overnight with antibodies specific to Mcl -1 (1:1000), Bcl-2 (1:1000), Bax (1:1000), PARP-1 (1:1000), all from Santa Cruz Biotechnology Inc. Antigen recognition was performed with appropriate secondary antibodies conjugated with horseradish peroxidase. The antigen-antibodies complexes were detected with Novex HRP Chromogenic substrate (TMB) from Invitrogen or, alternatively, by chemiluminescence method (see results in FIG. 3).

[3] = tested on: normal PBMCs; test: Cytotoxicity in normal PBMCs (propidium iodide; Membrane Permeability/Dead Cell Apoptosis Kit); format: cell-based, human; details: normal PBMCs from healthy donors, 24 and 48 h
Protocol: (§1) During the first stage, the cytotoxicity analysis of compounds according to the present invention introduced into the culture medium in increasing concentrations (from 0 μM to 60 μM) against leukemic and healthy peripheral blood mononuclear cells (PBMCs). The goal of this stage was to select the optimal concentrations which would be useful for the further comparative analysis of novel compound with conventional chemotherapeutics, i.e. cladribine and fludarabine, in terms of their antileukemic efficacy. The cytotoxicity of compounds was evaluated in PBMCs isolated from the blood of 5 patients with CLL, 1 with PLL and 5 healthy donors after 24 and 48 h. of incubation. Cell survival was evaluated cytometrically using propidium iodide staining using the Membrane Permeability/Dead Cell Apoptosis assay (propidium iodide+YO-PRO). […] FIG. 1a represents the survival of healthy cells treated with compounds according to the present invention at increasing concentrationsand evaluated using the Membrane Permeability/Dead Cell Apoptosis assay.
(§2) PBMC cells were isolated from peripheral blood using centrifugation via a Histopaque gradient according to the manufacturer's instructions. […] The cytotoxicity was assessed cytometrically after 24 and 48 h incubation.
(§3) Firstly, it was analyzed by propidium iodide staining. […]

[4] = tested on: CLL cells; test: Cytotoxicity in leukemic PBMCs from CLL patients; format: cell-based; details: 24 and 48 h
Protocol: as §1, §2, §3

[5] = tested on: PLL cells; test: Viability and apoptosis induction in PLL PBMCs (Membrane Permeability/Dead Cell Apoptosis Kit); format: cell-based, human; details: 15 μM, 1 case of PLL, very preliminary data
Protocol: The 15 μM concentration of the used agents, as safe for normal PBMCs, was selected for further analyses with regard to their apoptosis-inducing potential. The viability and apoptosis induction were examined in cell samples obtained from peripheral blood of 6 patients with leukemia (5 cases of CLL and 1 case of PLL). […] It is worth noting that the agents differed in their apoptosis inducing potential in PLL cells.
Firstly, it was analyzed by propidium iodide staining. Then, Membrane Permeability/Dead Cell Apoptosis Kit (Molecular Probes, Invitrogen™) was used to examine the contribution of apoptosis to cell death induction after exposure to the used agents. The analyses were performed on BD LSR II flow cytometry using FACSDiva Version 6.1.2 software. Ten thousand events were examined for each analysis. The distinction between living (YO-PRO-negative/propidium iodide-negative), early apoptotic (YO-PRO-positive/propidium iodide-negative) and dead (YO-PRO-positive/propiodium iodide-positive) cells was based on the differences in their permeability for fluorescent dyes. The results are shown as the percent of viable and early apoptotic cells in gated PBM cell population, respectively.
For further analyses the concentration of 15 μM of all tested agents was chosen. […]

Row | Compound | number of cells with active form of caspase 3 [1] | expression level of Bcl-2 in comparison to vehicle control [2] | cytotoxicity against normal PBMCs [3] | cytotoxicity / anti-leukemic potential against CLL cells [4] | anti-leukemic (apoptosis inducing) potential against PLL cells [5] | Bax expression level ([2]; cells from patient 1, 48 h) | Bcl-2 protein level ([2]; cells from patient 1, 48 h) | number of caspase-3-positive cells ([1]; 48 h) [%]
1 | Nc1nc(F)nc2c1ncn2[C@@H]1O[C@H](CO)[C@@H](O)[C@@H]1O [fludarabine] | 11.8% | – | – | – | – | – | – | –
2 | 2-ethynyl-(1,12-dicarba-closo-dodecaboran-2-yl)adenosine [compound 3] | 28.5% | clear decrease | less cytotoxic against normal PBMCs; also recorded: lower than fludarabine | smaller anti-leukemic potential against CLL cells than compound 5 | very potent against PLL cells; also recorded: even higher than that of cladribine and fludarabine | – | – | –
3 | 8-ethynyl-(1,12-dicarba-closo-dodecaboran-2-yl-2′-deoxyadenosine [compound 5] | 16.1% | clear decrease | – | more cytotoxic in comparison to compound 3 | – | – | – | –
4 | Nc1nc(Cl)nc2c1ncn2[C@H]1C[C@H](O)[C@@H](CO)O1 [cladribine, reference compound] | 20,1% | – | – | – | – | essential increase | diminution | 11.8
